# From the NIST ThermoML archive (doi:10.1021/je100081v)
# Numbers after ± are expanded uncertainties.
# Conditions: Liquid
vapor or sublimation pressure (509.95 K),vapor or sublimation pressure (469.15 K),Compound
101.32 ± 0.2 kPa,–,O=CN1CCOCC1 [N-formylmorpholine]
–,101.32 ± 0.19 kPa,"OCCO [1,2-ethanediol]"
